The record followed here is PubChem BioAssay (NCI).

What all share (experiment): growth of human tumour cells (NCI), 48 h
Assay [1] has as its system OVCAR-8 ovarian.
Assay [2] concerns M14 melanoma.
Assay [3] concerns SW-620 colon.
The subject of assay [4] is SK-OV-3 ovarian.
Assay [5] relates to IGROV1 ovarian.
In assay [6] the test system is SK-MEL-28 melanoma.
In assay [7] the test system is MCF7 breast.
Assay [8] concerns NCI-H522 lung.
Assay [9] concerns HCC-2998 colon.
Assay [10] has as its system MDA-MB-231 breast.

Several values for one entry are separate records, joined by “and”; a condition that tells them apart may be missing. Equal values may be shown once.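 Step 1: Grow cells in 96-well plates. Step 2: Expose to compound for 48 hours at 5 concentrations. Step 3: Interpolate endpoints linearly; if unreached, use highest concentration. At the GI50, growth is halved. TGI is the concentration that stops growth completely.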

As for `COC(=O)[C@]12CC[C@@H](C)[C@H](C)[C@@H]1C1=CC[C@@H]3[C@@]4(C)C(C=O)=C[C@@](C)(COC(=O)c5ccco5)C4=CC[C@@]3(C)[C@]1(C)CC2`, the GI50 in assay [1] is 3.67 µM; in assay [2], 0.104 µM; in assay [3] it was 3.1 µM; in [4], 8.41 µM; in [5], 4.06 µM; in [6], 0.053 µM. The GI50 in assay [7] is 2.77 µM; in assay [8], 3.31 µM; in assay [9], 2.76 µM; in assay [10], 2.73 µM. In addition, the TGI in assay [1] is 15.9 µM; in [2], 6.93 µM; in assay [3], 11.2 µM; in [4], 75.1 µM; in assay [5] it was 24.3 µM; in assay [6] it was 3.01 µM. The TGI was 10.3 µM in [7], 10.9 µM in assay [8], 7.17 µM in assay [9] and 9.47 µM in assay [10].
Regarding `Fc1cccc(-c2nc(-c3c[nH]c4ncccc34)cs2)c1`, the GI50 is 42.4 µM in [1]; 5.61 µM in [2]; more than 100 µM in assay [3]; 11.9 µM in assay [4]; 8.15 µM in assay [5]; more than 100 µM in assay [6]. Also, the GI50 in [7] is 5.27 µM; in [8] it was more than 100 µM; in assay [9], more than 100 µM; in assay [10], 38.2 µM. In addition, the TGI in assay [1] is more than 100 µM; in assay [2] it was more than 100 µM; in [3], more than 100 µM; in assay [4], 94.3 µM; in [5] it was more than 100 µM; in assay [6], more than 100 µM. In addition, the TGI in [7], in assay [8], in assay [9] and in assay [10] was more than 100 µM in each case.
With `NC1=C(/C(N)=N/O)C(c2ccccc2)c2ccc3ccccc3c2O1` (centres undefined), the GI50 in [1] was 0.725 µM; in assay [2], 0.208 µM; in assay [3], 0.243 µM; in assay [4], 0.616 µM; in assay [5] it was 0.459 µM; in [6], 11.3 µM. Also, the GI50 in assay [7] was 0.261 µM; in assay [8], 0.145 µM; in [9], 0.729 µM; in assay [10], 0.988 µM. For the same compound, the TGI is more than 92.9 µM in [1]; 21.1 µM in assay [2]; more than 100 µM in [3]; more than 100 µM in [4]; more than 64.3 µM in assay [5]; 51 µM in assay [6]. Also, the TGI was 97.4 µM in assay [7], 26.7 µM in assay [8], 15.8 µM in [9] and 24.5 µM in [10].
Turning to `COc1ccccc1C(=O)Nc1ccc(Cl)c(C(=O)OC(C)C)c1`, the TGI was more than 100 µM in assay [1]; more than 93.3 µM in [2]; more than 100 µM in assay [3]; more than 100 µM in assay [4]; more than 100 µM in assay [5]; more than 94.5 µM in assay [6]. Besides, the TGI was more than 100 µM in assay [7], more than 81.4 µM in assay [8], more than 100 µM in assay [9] and more than 100 µM in assay [10].
Consider `CSc1ccc(NC(=O)CCl)cc1`, for which the TGI in assay [1] is more than 10 µM; in [2] it was 3.73 µM; in [3], more than 10 µM; in assay [4], more than 10 µM; in assay [5], more than 10 µM; in assay [6], more than 10 µM. The TGI was more than 10 µM in assay [7], 6.82 µM in assay [8], 7.19 µM in [9] and more than 10 µM in [10].
As for `COc1ccccc1CNC(=O)/C=C/c1ccc(O)c(O)c1`, the GI50 in assay [1] was 75.7 µM; in [2] it was 72.4 µM; in [3], more than 100 µM; in assay [4] it was 38.2 µM; in [5], 22.9 µM; in assay [6], 89 µM. Moreover, the GI50 in assay [7] was more than 100 µM; in [8], 22.7 µM; in [9], 34.6 µM; in assay [10], 22.6 µM. The TGI in assay [1], in [2], in [3], in assay [4], in assay [5] and in assay [6] was more than 100 µM throughout. For the same compound, the TGI in [7], in [8], in assay [9] and in assay [10] was more than 100 µM in each case.
For `CCN1Cc2c(/C=C/c3ccccc3)nc3ccc(OC)cc3c2N(c2cccc(Cl)c2)C1`, the GI50 in [1] is 1.84 µM; in [2], 2.04 µM; in [3] it was 1.67 µM; in assay [4], 1.88 µM; in [5], 1.4 µM; in assay [6], 1.78 µM. For the same compound, the GI50 in assay [7] was 1.65 µM; in assay [8], 1.4 µM; in assay [9], 1.64 µM; in assay [10] it was 1.75 µM. The TGI in assay [1] came out at 4.29 µM; in [2] it was 4 µM; in assay [3], 3.29 µM; in assay [4], 4.4 µM; in assay [5] it was 3.68 µM; in assay [6], 3.28 µM. Also, the TGI in assay [7] came to 3.75 µM; in [8], 2.88 µM; in assay [9], 3.14 µM; in [10] it was 3.69 µM.
On to `COc1cc(-c2cn(-c3ccc(F)cc3)c(=O)[nH]2)cc(OC)c1OC`, for which the GI50 in [1], in assay [2], in assay [3], in assay [4], in [5] and in assay [6] was more than 100 µM in each case. For the same compound, the GI50 in assay [7], in assay [8], in assay [9] and in assay [10] was more than 100 µM throughout. The TGI in [1], in assay [2], in assay [3], in assay [4], in [5] and in assay [6] was more than 100 µM each time. Moreover, the TGI in [7], in assay [8], in assay [9] and in assay [10] was more than 100 µM in each case.
Consider `COc1ccc(-n2nc(C(=O)NCC(=O)Nc3nc4cc(OC)ccc4s3)c3ccccc3c2=O)cc1`, for which the GI50 in [1] is 0.533 µM; in assay [2], 2.37 µM; in assay [3], 0.66 µM; in assay [4] it was 1.83 µM; in assay [5], 1.18 µM; in assay [6], 0.631 µM. The GI50 in assay [7] was 1.35 µM; in [8], 1.69 µM; in [9], 0.589 µM; in [10] it was 1.49 µM. Further, the TGI was 2 µM in [1]; more than 42.9 µM in [2]; more than 100 µM in assay [3]; 4.93 µM in assay [4]; more than 25.3 µM in assay [5]; 2.3 µM in assay [6]. Also, the TGI in [7] is more than 32 µM; in assay [8], 7.99 µM; in assay [9], 7.89 µM; in assay [10] it was 4.46 µM.
As for `O=C(O)c1ccccc1C(=O)Nc1cc2c(cc1Br)-c1ccccc1C2=O`, the TGI in assay [1], in assay [2], in assay [3], in assay [4], in [5] and in assay [6] was more than 100 µM throughout. Further, the TGI in [7] was more than 100 µM; in assay [8], more than 100 µM; in assay [9], 58 µM; in [10] it was more than 100 µM.
Take `Cc1nc2sc(C(=O)Nc3cccc(Cl)c3C)c(N)c2cc1C(O)c1ccccc1` (centres undefined): the GI50 in assay [1] is 0.0512 µM; in assay [2] it was 0.0291 µM; in [3] it was 0.0331 µM; in assay [4], 0.0697 µM; in [5], 0.0532 µM; in assay [6], 1.6 µM. Further, the GI50 in assay [7] was 0.0332 µM; in assay [8], 0.0278 µM; in assay [9], 0.106 µM; in [10], 0.0834 µM. Besides, the TGI in [1] came to 35.3 µM; in assay [2], 13.1 µM; in [3], 15.4 µM; in assay [4] it was 33.4 µM; in assay [5] it was 12.7 µM; in [6] it was 23.1 µM. Moreover, the TGI came out at 11.3 µM in assay [7], 1.77 µM in assay [8], 2.36 µM in assay [9] and 6.95 µM in [10].
For the compound `O=C(Oc1c(Cl)c(Cl)c(Cl)c(Cl)c1Cl)C1CCCN1C(=O)OCc1ccccc1` (centres undefined), the GI50 in assay [1] is 3.43 µM; in assay [2], 4 µM; in assay [3], 3.44 µM; in assay [4] it was 3.15 µM; in assay [5], 4 µM; in [6], 7.45 µM. For the same compound, the GI50 in assay [7] is 3.16 µM; in assay [8], 2.47 µM; in assay [9], 4.36 µM; in assay [10], 2.42 µM. In addition, the TGI was found to be 15.9 µM in [1]; 16.4 µM in assay [2]; 14.4 µM in assay [3]; 9.07 µM in assay [4]; 22 µM in assay [5]; 22.1 µM in [6]. The TGI in assay [7] came out at 11.9 µM; in assay [8] it was 6.84 µM; in assay [9] it was 14.9 µM; in assay [10], 6.6 µM.
Take `COc1cc(NC(=O)c2cc3ccccc3cc2O)c(OC)cc1Cl`: the GI50 in assay [1] was 2.84 µM; in [2], 2.74 µM; in [3], 3.08 µM; in assay [4], 1.39 µM; in [5] it was 0.0776 µM; in assay [6], 2.86 µM. Moreover, the GI50 in assay [7] was 1.93 µM; in assay [8], 1.89 µM; in assay [9] it was 2.68 µM; in [10], 1.57 µM. For the same compound, the TGI is more than 32.8 µM in assay [1]; more than 100 µM in assay [2]; more than 34.5 µM in assay [3]; 3.94 µM in assay [4]; 15.4 µM in assay [5]; 10.7 µM in [6]. In addition, the TGI in assay [7] was found to be 7.13 µM; in [8], 9.41 µM; in assay [9], 7.72 µM; in [10], 4.79 µM.
For the compound `O=C(Cc1ccc(-c2ccc(OCCN3CCOCC3)cc2)cn1)NCc1ccccc1`, the GI50 in [1] was 0.0466 µM and 0.0493 µM; in assay [2], 0.0285 µM; in assay [3] it was 0.0376 µM and 0.0388 µM; in assay [4] it was 0.0303 µM and 0.0549 µM; in assay [5], 0.0944 µM and 0.0708 µM; in assay [6], 0.0462 µM and 0.211 µM. The GI50 is < 0.0164 µM and 0.0356 µM in [7]; 0.0223 µM and 0.0242 µM in assay [8]; 0.0316 µM and 0.166 µM in assay [9]; 0.0577 µM and 0.0833 µM in [10]. In addition, the TGI in [1] is more than 36.2 µM; in assay [2] it was 1.76 µM; in assay [3] it was more than 100 µM; in assay [4] it was 7.01 µM and > 10 µM; in [5], more than 100 µM; in assay [6], more than 100 µM. Further, the TGI in [7] was more than 100 µM; in [8], 0.0831 µM; in [10], more than 100 µM.
For `COC(=O)C[C@@H]1CC=CC(=O)/C1=C(O)/C=C/c1ccccc1`, the GI50 was 0.602 µM in assay [1]; 0.578 µM in [2]; 0.338 µM in assay [3]; 1.7 µM in assay [4]; 0.216 µM in [5]; 1.19 µM in [6]. Further, the GI50 in assay [7] is 0.374 µM; in [8] it was 0.32 µM; in assay [9], 1.72 µM; in assay [10], 1.46 µM. Further, the TGI in [1] turned out to be 3.76 µM; in assay [2] it was 1.69 µM; in assay [3], 1.33 µM; in assay [4], 3.88 µM; in assay [5], 0.52 µM; in assay [6] it was 2.61 µM. Also, the TGI came out at 3.04 µM in assay [7], 0.959 µM in [8], 3.25 µM in assay [9] and 4.22 µM in assay [10].
